In patent US20150018271A1, “HSP60 DERIVED PEPTIDES AND PEPTIDE ANALOGS FOR SUPPRESSION AND TREATMENT OF NON-AUTOIMMUNE DIABETES” (Yeda Research and Development Co. Ltd., priority 2012, published 2015):
Ends that are not written are not given here.

Experiments:
[1] = test system: male C57BL/N mice on high fat (60%) diet; details: any of the DiaPep277 treatments (100-500 μg in intralipid SC or 100 μg in PBS IP), about 16 weeks, FIG. 1
Description: Mice genetically prone to T2D (dp/dp or ob/ob strains, resistant to leptin), and/or healthy C57BL/6 mice induced to develop T2D by a high fat diet are used in vivo to assess the activity of hsp60 peptides and analogs in protecting against or treatment of T2D. […] In the fat diet model, the diet (for example TD.0811 of Harlan™, or D12492 of Research Diets Inc. containing 21% and 34.9% fat respectively) is initiated after weaning and the mice express T2D by 10 weeks of age.
In a typical trial, groups of T2D mice (10 mice per group) are treated early in the course of the disease (about 7-10 weeks of age). […]
Treatment with DiaPep277 or other hsp60 peptides or analogs, is performed once or several times a week with doses of 100-500 micrograms injected subcutaneously (with adjuvant such as intralipid) or IP, IM or IV (without adjuvant). Glucose tolerance, fasting glucose and fasting insulin levels are measured 1-2 months after onset of treatment.
In one specific in-vivo trial, 70 male C57BL/N mice were weighed, measured for blood glucose levels and divided into seven groups, 10 mice/group as following: […]
Animals of groups 2-7 were fed with 60% fat diet of from age of 5 weeks until termination of the trial. […] After about 16 weeks the trial was terminated and Hemoglobin A1C and C-peptide levels were measured using methods known in the art.

NOD mice = details: cited from earlier work

Substance	animal appetite and weight [1]	gamma interferon secretion (NOD mice; after treatment)	p277-specific IL-4 and IL-10 secretion (NOD mice; after treatment)	p277-specific IgG1 antibodies (NOD mice; after treatment)	T-cell reactivity to beta cell antigens (NOD mice; subcutaneous administration)	development of diabetes (NOD mice; subcutaneous administration)
VLGGGVALLRVIPALDSLTPANED [DiaPep277]	did not change	–	–	–	–	–
p277: specific peptide of human hsp60, one of the immunodominant epitopes in autoimmune diabetes; native cysteines at positions 6 and 11 (VLGGGCALLRCIPALDSLTPANED; p277 peptide; UniProt P10809 437-460, looked up, fragment)	–	decrease	increase	induced	down-regulated	prevented the development of diabetes
